Measured values as given in PubChem BioAssay AID192 (DTP/NCI, 2004).
Where “and” joins values, the source holds several entries; their conditions need not be identical. Identical values can stand only once. Toxic doses and inconclusive results are not listed.

System: BDF1 mice, B16 melanoma ip, median survival T/C
Test: NCI In Vivo Anticancer Drug Screen. Data for tumor model B16 Melanoma (intraperitoneal) in B6D2F1 (BDF1) mice
Details: endpoint: median survival time, higher = longer survival
Outline: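 Survival or tumor size is measured after treatment of tumor-bearing mice and normalised to the vehicle-treated control group.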

[1] = dose: 12.5 mg/kg/injection, schedule: Q01DX009 (ip), vehicle: saline with Tween-80
[2] = dose: 25.0 mg/kg/injection, schedule: Q01DX009 (ip), vehicle: saline with Tween-80
[3] = dose: 50.0 mg/kg/injection, schedule: Q01DX009 (ip), vehicle: saline with Tween-80
[4] = dose: 100.0 mg/kg/injection, schedule: Q01DX009 (ip), vehicle: saline with Tween-80
[5] = dose: 200.0 mg/kg/injection, schedule: Q01DX009 (ip), vehicle: saline with Tween-80
[6] = dose: 50.0 mg/kg/injection, schedule: Q01DX009 (ip), vehicle: saline
[7] = dose: 100.0 mg/kg/injection, schedule: Q01DX009 (ip), vehicle: saline
[8] = dose: 200.0 mg/kg/injection, schedule: Q04DX003 (ip), vehicle: Klucel (hydroxypropylcellulose) (HPC)
[9] = dose: 400.0 mg/kg/injection, schedule: Q04DX003 (ip), vehicle: Klucel (hydroxypropylcellulose) (HPC)
[10] = dose: 25.0 mg/kg/injection, schedule: Q01DX009 (ip), vehicle: Klucel (hydroxypropylcellulose) (HPC)
[11] = dose: 50.0 mg/kg/injection, schedule: Q01DX009 (ip), vehicle: Klucel (hydroxypropylcellulose) (HPC)
[12] = dose: 100.0 mg/kg/injection, schedule: Q01DX009 (ip), vehicle: Klucel (hydroxypropylcellulose) (HPC)
[13] = dose: 3.12 mg/kg/injection, schedule: Q01DX009 (ip), vehicle: Klucel (hydroxypropylcellulose) (HPC)
[14] = dose: 6.25 mg/kg/injection, schedule: Q01DX009 (ip), vehicle: Klucel (hydroxypropylcellulose) (HPC)
[15] = dose: 12.5 mg/kg/injection, schedule: Q01DX009 (ip), vehicle: Klucel (hydroxypropylcellulose) (HPC)
[16] = dose: 200.0 mg/kg/injection, schedule: Q01DX009 (ip), vehicle: Klucel (hydroxypropylcellulose) (HPC)
[17] = dose: 3.13 mg/kg/injection, schedule: Q01DX009 (ip), vehicle: saline
[18] = dose: 6.25 mg/kg/injection, schedule: Q01DX009 (ip), vehicle: saline
[19] = dose: 12.5 mg/kg/injection, schedule: Q01DX009 (ip), vehicle: saline

Cc1cc([NH-])c([NH-])cc1C.[Cl][Pt+2][Cl]
T/C (dose: 1.25 mg/kg/injection, schedule: Q01DX009 (ip), vehicle: saline with Tween-80): 108 % of control
T/C (dose: 2.5 mg/kg/injection, schedule: Q01DX009 (ip), vehicle: saline with Tween-80): 123 % of control
T/C (dose: 10.0 mg/kg/injection, schedule: Q01DX009 (ip), vehicle: saline with Tween-80): 161 % of control

CCCCCCOC(CN(C)C)C(Cl)(Cl)Cl (stereo not drawn)
T/C (dose: 12.5 mg/kg/injection, schedule: Q01DX009 (ip), vehicle: distilled water + Tween-80): 100 % of control
T/C [1]: 101 % of control
T/C (dose: 25.0 mg/kg/injection, schedule: Q01DX009 (ip), vehicle: distilled water + Tween-80): 97 % of control
T/C [2]: 105 % of control
T/C (dose: 50.0 mg/kg/injection, schedule: Q01DX009 (ip), vehicle: distilled water + Tween-80): 94 % of control
T/C [3]: 102 % of control
T/C (dose: 100.0 mg/kg/injection, schedule: Q01DX009 (ip), vehicle: distilled water + Tween-80): 89 % of control
T/C [4]: 90 % of control
T/C [5]: 89 % of control

O=C1C(=O)C(Cl)=C(Cl)C(Cl)=C1Cl
T/C (dose: 0.75 mg/kg/injection, schedule: Q01DX009 (ip), vehicle: saline): 106 % of control
T/C (dose: 1.5 mg/kg/injection, schedule: Q01DX009 (ip), vehicle: saline): 93 % of control
T/C (dose: 3.0 mg/kg/injection, schedule: Q01DX009 (ip), vehicle: saline): 93 % of control

c1ccc2c(c1)CNNC2
T/C [6]: 123 % of control
T/C [7]: 111 % of control
T/C (dose: 200.0 mg/kg/injection, schedule: Q01DX009 (ip), vehicle: saline): 100 % of control

CNc1ccc(S(=O)(=O)O)cc1
T/C (dose: 100.0 mg/kg/injection, schedule: Q04DX003 (ip), vehicle: Klucel (hydroxypropylcellulose) (HPC)): 100 % of control
T/C [8]: 100 % of control
T/C [9]: 86 % of control

Cc1cccc(NC(=O)Nc2ccccc2Cl)c1C
T/C [10]: 101 % of control
T/C [11]: 101 % of control
T/C [12]: 101 % of control

CCOC(=O)C(Cc1ccc(O)cc1)NP(=O)(OCCCl)OCCCl (stereo not drawn)
T/C [8]: 86 % of control
T/C [9]: 91 % of control

COc1cc2c(c(OC)c1OC)-c1ccc(SCc3ccccc3)c(=O)cc1[C@@H](NC(C)=O)CC2
T/C (dose: 1.56 mg/kg/injection, schedule: Q01DX009 (ip), vehicle: Klucel (hydroxypropylcellulose) (HPC)): 91 % of control and 111 % of control
T/C [13]: 102 % of control and 107 % of control
T/C [14]: 101 % of control and 106 % of control
T/C [15]: 109 % of control and 111 % of control
T/C [10]: 113 % of control

[CH3][Hg][O]C(C)=O
T/C [13]: 94 % of control
T/C [14]: 86 % of control

COc1ccc(-c2csc(=[N+]3CCCCC3)s2)cc1
T/C (dose: 1.56 mg/kg/injection, schedule: Q01DX009 (ip), vehicle: water): 94 % of control and 95 % of control
T/C (dose: 3.12 mg/kg/injection, schedule: Q01DX009 (ip), vehicle: water): 90 % of control and 101 % of control
T/C (dose: 6.25 mg/kg/injection, schedule: Q01DX009 (ip), vehicle: water): 101 % of control and 102 % of control
T/C (dose: 12.5 mg/kg/injection, schedule: Q01DX009 (ip), vehicle: water): 103 % of control and 109 % of control
T/C (dose: 25.0 mg/kg/injection, schedule: Q01DX009 (ip), vehicle: water): 86 % of control and 110 % of control

C=COCCCCCC(C)C
T/C [10]: 97 % of control
T/C [11]: 102 % of control
T/C [12]: 86 % of control and 91 % of control

COc1ccc(NC(=O)Nc2ccc(Br)cc2)cc1
T/C [2]: 98 % of control
T/C [3]: 92 % of control
T/C [4]: 89 % of control and 95 % of control

CC1C2Cc3ccc(O)cc3C1(C)CCN2CC1CC1 (stereo not drawn)
T/C [10]: 100 % of control
T/C [11]: 94 % of control
T/C [12]: 95 % of control

CSc1nc(Cl)c(Br)c(Cl)n1
T/C (dose: 1.56 mg/kg/injection, schedule: Q01DX009 (ip), vehicle: saline with Tween-80): 110 % of control
T/C (dose: 3.13 mg/kg/injection, schedule: Q01DX009 (ip), vehicle: saline with Tween-80): 112 % of control
T/C (dose: 6.25 mg/kg/injection, schedule: Q01DX009 (ip), vehicle: saline with Tween-80): 102 % of control
T/C [1]: 108 % of control

ClCCN(CCCl)c1ccc(/C=C/c2ccccc2)cc1
T/C [14]: 98 % of control
T/C [15]: 96 % of control
T/C [10]: 96 % of control
T/C [11]: 90 % of control
T/C [12]: 101 % of control

CC[C@H](CC[C@@H](C)[C@H]1CC[C@H]2[C@@H]3CC=C4C[C@@H](O)CC[C@]4(C)[C@H]3CC[C@]12C)C(C)C
T/C [12]: 91 % of control
T/C [16]: 109 % of control
T/C (dose: 400.0 mg/kg/injection, schedule: Q01DX009 (ip), vehicle: Klucel (hydroxypropylcellulose) (HPC)): 94 % of control

COc1cc([C@@H]2c3cc4c(cc3[C@H](O)[C@H]3COC(=O)[C@@H]23)OCO4)cc(OC)c1OC
T/C (dose: 6.0 mg/kg/injection, schedule: Q01DX009 (ip), vehicle: Klucel (hydroxypropylcellulose) (HPC)): 105 % of control
T/C (dose: 12.0 mg/kg/injection, schedule: Q01DX009 (ip), vehicle: Klucel (hydroxypropylcellulose) (HPC)): 113 % of control
T/C (dose: 24.0 mg/kg/injection, schedule: Q01DX009 (ip), vehicle: Klucel (hydroxypropylcellulose) (HPC)): 113 % of control

Clc1ccc2c(Cl)ncnc2c1
T/C [15]: 100 % of control
T/C [10]: 100 % of control
T/C [11]: 102 % of control
T/C [12]: 100 % of control
T/C [16]: 90 % of control

NC(CSC(c1ccccc1)(c1ccccc1)c1ccccc1)C(=O)O (stereo not drawn)
T/C [17]: 109 % of control
T/C [18]: 118 % of control
T/C [19]: 120 % of control
T/C [6]: 150 % of control

CCOC(C[Se][Se]CC(OCC)OCC)OCC
T/C (dose: 1.56 mg/kg/injection, schedule: Q01DX009 (ip), vehicle: saline): 99 % of control
T/C [17]: 104 % of control
T/C [18]: 95 % of control

N=C(N)SCc1cccc([N+](=O)[O-])c1
T/C [15]: 93 % of control
T/C [10]: 103 % of control
T/C [11]: 97 % of control

NNC(=O)CCC(=O)NN
T/C [4]: 102 % of control
T/C [5]: 104 % of control
T/C (dose: 400.0 mg/kg/injection, schedule: Q01DX009 (ip), vehicle: saline with Tween-80): 93 % of control

Ic1ncnc2c1ncn2C1CCCO1 (stereo not drawn)
T/C [12]: 118 % of control
T/C [16]: 104 % of control

CC(=O)N(C)O
T/C [2]: 98 % of control
T/C [3]: 107 % of control
T/C [4]: 101 % of control
T/C [5]: 103 % of control

CCCCCCCCCC(=O)CC
T/C [11]: 100 % of control
T/C [12]: 99 % of control
T/C [16]: 100 % of control

C#CC(O)(/C=C\Cl)CC (stereo not drawn)
T/C [18]: 110 % of control
T/C [19]: 102 % of control
T/C (dose: 25.0 mg/kg/injection, schedule: Q01DX009 (ip), vehicle: saline): 100 % of control
T/C [6]: 110 % of control
T/C [7]: 115 % of control

CN=C1N[N+]2=CCCCC2S1 (stereo not drawn)
T/C (dose: 40.0 mg/kg/injection, schedule: Q01DX011 (ip), vehicle: saline): 104 % of control
T/C (dose: 60.0 mg/kg/injection, schedule: Q01DX011 (ip), vehicle: saline): 112 % of control
T/C (dose: 80.0 mg/kg/injection, schedule: Q01DX011 (ip), vehicle: saline): 111 % of control

CCC(C(C)N1CC(=O)NC(=O)C1)N1CC(=O)NC(=O)C1 (stereo not drawn)
T/C (dose: 0.06 mg/kg/injection, schedule: Q01DX009 (ip), vehicle: Klucel (hydroxypropylcellulose) (HPC)): 107 % of control
T/C (dose: 0.13 mg/kg/injection, schedule: Q01DX009 (ip), vehicle: Klucel (hydroxypropylcellulose) (HPC)): 108 % of control
T/C (dose: 0.25 mg/kg/injection, schedule: Q01DX009 (ip), vehicle: Klucel (hydroxypropylcellulose) (HPC)): 109 % of control and 124 % of control
T/C (dose: 0.25 mg/kg/injection, schedule: Q04DX003 (ip), vehicle: Klucel (hydroxypropylcellulose) (HPC)): 105 % of control
T/C (dose: 0.5 mg/kg/injection, schedule: Q01DX009 (ip), vehicle: Klucel (hydroxypropylcellulose) (HPC)): 120 % of control
T/C (dose: 0.5 mg/kg/injection, schedule: Q04DX003 (ip), vehicle: Klucel (hydroxypropylcellulose) (HPC)): 114 % of control
T/C (dose: 1.0 mg/kg/injection, schedule: Q04DX003 (ip), vehicle: Klucel (hydroxypropylcellulose) (HPC)): 115 % of control and 121 % of control
T/C (dose: 8.0 mg/kg/injection, schedule: Q04DX003 (ip), vehicle: Klucel (hydroxypropylcellulose) (HPC)): 156 % of control

CCCCOB=O
T/C [3]: 95 % of control
T/C [4]: 99 % of control
T/C [5]: 89 % of control
